Data set [1] has as its system K562. Description: (§1) Inhibition of TNFalpha-induced NF-kappa-B transcriptional activity in human K562 cells pretreated with compound for 2 hrs measured 6 hrs post TNFalpha challenge by luciferase reporter gene assay. It counts as cell-based. On the technique in general: Reporter assays use an easily measured gene product as a stand-in for the process of interest.
A short description of data set [2]: as §1. It counts as cell-based.
The test system of data set [3] is K562. Description: Cytotoxicity against human K562 cells at 0.5 to 100 uM after 8 to 72 hrs by trypan blue exclusion test. It counts as functional, cell-based.
For data set [4], the system named is K562. The data set is described as follows: Cytotoxicity against human K562 cells after 24 hrs by trypan blue exclusion test. It is filed as functional, cell-based. The following applies: K562, 24 h.
In data set [5] the test system is K562. The data set is described as follows: Cytotoxicity against human K562 cells after 48 hrs by trypan blue exclusion test. It is filed as functional, cell-based. As to conditions: K562, 48 h.
In data set [6] the test system is K562. Description: Cytotoxicity against human K562 cells at 100 uM after 24 hrs by trypan blue exclusion test. It counts as functional, cell-based.
The test system of data set [7] is K562. Description: Inhibition of TNFalpha-induced NF-kappa-B transcriptional activity in human K562 cells pretreated with compound at 100 uM for 2 hrs measured 6 hrs post TNFalpha challenge by luciferase reporter gene assay. It counts as cell-based.
Data set [8] deals with K562. Description: Induction of apoptosis in human K562 cells after 16 to 72 hrs using annexin V-propidium iodide staining by FACS analysis. It counts as functional, cell-based.
The subject of data set [9] is K562. The data set is described as follows: Cell cycle arrest in human K562 cells assessed as accumulation at sub-G1 phase after 16 to 72 hrs by flow cytometry. It is filed as functional, cell-based. Background: Flow cytometry measures light scatter and fluorescence of single cells or particles in a stream.
The test system of data set [10] is A549. The data set is described as follows: Cytotoxicity against human A549 cells after 24 hrs by XTT assay. It is filed as functional, cell-based. As to conditions: A549, 24 h.
Data set [11] concerns A549. Description: Antiproliferative activity against human A549 cells measured at 6 hrs over 120 hrs by videomicroscopy analysis. It is filed as functional, cell-based.
Data set [12] concerns PBMC. The data set is described as follows: Effect on metabolism of human PBMCs after 24 hrs by CellTiter-Glo luminescent cell viability assay. It counts as functional, cell-based.
Data set [13] has as its system K562. Description: Induction of apoptosis in human K562 cells assessed as reduction in XIAP expression after 16 to 72 hrs by Western blot analysis. It is filed as functional, cell-based. Background: A western blot detects proteins with antibodies after separation by electrophoresis.
The subject of data set [14] is K562. Description: Induction of apoptosis in human K562 cells assessed as cleavage of caspase-3 after 16 to 24 hrs by Western blot analysis. It counts as functional, cell-based.
Data set [15] concerns K562. Description: Cell cycle arrest in human K562 cells assessed as accumulation at sub-G1 phase after 24 hrs by flow cytometry relative to untreated control. It counts as functional.
Data set [16] relates to K562. The data set is described as follows: Cell cycle arrest in human K562 cells assessed as accumulation at sub-G1 phase after 16 hrs by flow cytometry relative to untreated control. It counts as functional.
The test system of data set [17] is K562. Description: Induction of apoptosis in human K562 cells assessed as reduction in Mcl-1 expression after 16 to 72 hrs by Western blot analysis. It is filed as functional, cell-based.
The test system of data set [18] is A549. Description: Antimigratory activity against human A549 cells treated at 25 uM after scratching measured at 6 hrs interval over 120 hrs by scratch-wound assay. It is filed as functional, cell-based.
Data set [19] concerns K562. The data set is described as follows: Cell cycle arrest in human K562 cells assessed as accumulation at sub-G1 phase at 4 uM after 48 hrs by flow cytometry relative to untreated control. It is filed as functional.
The test system of data set [20] is K562. Description: Cell cycle arrest in human K562 cells assessed as accumulation at sub-G1 phase at 4 uM after 72 hrs by flow cytometry relative to untreated control. It is filed as functional.
Data set [21] has as its system K562. The data set is described as follows: Antiproliferative activity against human K562 cells measured at 6 hrs over 120 hrs by videomicroscopy analysis. It is filed as functional, cell-based.
Data set [22] has as its system K562. The data set is described as follows: Cell cycle arrest in human K562 cells assessed as accumulation at sub-G1 phase at 0.2 to 10 uM by flow cytometry. It is filed as functional, cell-based. The following applies: TDE = time-dependent effect.
Data set [23] concerns K562. The data set is described as follows: Induction of apoptosis in human K562 cells assessed as reduction in Bcl-xL expression after 16 to 72 hrs by Western blot analysis. It counts as functional, cell-based.
Data set [24] has as its system PBMC. Description: Cytotoxicity against human PBMCs after 24 hrs by trypan blue exclusion test. It counts as cell-based.
Data set [25] deals with K562. Description: Induction of apoptosis in human K562 cells assessed as cleavage of caspase-9 after 16 to 24 hrs by Western blot analysis. It counts as functional, cell-based.

This is an account of results in ChEMBL document CHEMBL2390848, “Anticancer effect of altersolanol A, a metabolite produced by the endophytic fungus Stemphylium globuliferum, mediated by its pro-apoptotic and anti-invasive potential via the inhibition of NF-κB activity” (Bioorg Med Chem, 2013).

The source made the active and inactive calls. The calls are words filed in the database; no cut-off is given here. Some results are limits rather than exact numbers.

As usually defined, the IC50 is the concentration that gives 50% inhibition. As usually defined, the EC50 is the concentration needed to bring the measured effect to its halfway point. With `COc1cc(OC(C)=O)c2c(c1)C(=O)C1=C(C2=O)[C@H](OC(C)=O)[C@@H](OC(C)=O)[C@@](C)(O)[C@@H]1OC(C)=O`, the inhibition result in the data set on K562 [1] was “Dose-dependent effect”. Moreover, the IC50 in data set [2] was 4.64 µM. The outcome with K562 [3] was Active. The EC50 in the data set with K562 [4] came out at 4 µM; in the data set with K562 [5] it was 2.5 µM.
In the case of `COc1cc(O)c2c(c1)[C@H](O)[C@@H]1[C@@H](C2=O)[C@H](O)[C@@H](O)[C@@](C)(O)[C@@H]1O`, the outcome in the data set on K562 [6] was inactive. Also, the inhibition entry in the data set with K562 [7] was “inactive”.
As for `COc1cc(O)c2c(c1)[C@H](O)[C@H]1C[C@](C)(O)[C@H](O)C[C@@H]1C2=O`, in the data set on K562 [6], the result was inactive. The inhibition result in the data set with K562 [7] is “inactive”.
For the compound `COc1cc(O)c2c(c1)C(=O)C1=C(C2=O)[C@H](O)[C@@H](O)[C@@](C)(O)[C@@H]1O` [ALTERSOLANOL A], the Activity result was “Dose-dependent effect” with K562 [8]; “Dose-dependent effect” in the data set on K562 [9]; “Dose-dependent effect” in the data set with K562 [13]; “Dose-dependent effect” in the data set with K562 [14]; 40% in the data set with K562 [15]; 40% in the data set with K562 [16]. Further, the Activity entry in the data set on K562 [17] is “Dose-dependent effect”; with K562 [19], 65%; in the data set with K562 [20] it was 65%; in the data set on K562 [22], “tde”; with K562 [23] it was “Dose-dependent effect”; in the data set with PBMC [24] it was “Non-toxic”. Moreover, the Activity entry with K562 [25] is “Dose-dependent effect”. In addition, the EC50 is 29.5 µM with A549 [10]; more than 2 µM in the data set with A549 [11]; 4.2 µM in the data set on PBMC [12]; more than 1 µM in the data set with K562 [21]; 4 µM in the data set on K562 [4]; 2.5 µM in the data set on K562 [5]. Also, the inhibition entry with K562 [1] is “Dose-dependent effect”. In [2], the IC50 amounted to 0.8 µM. The outcome in the data set with A549 [18] and in the data set on K562 [3] was Active.
